Results published in ChEMBL document CHEMBL1130649, “Rational design of a new series of mixed anti-HIV pronucleotides” (Bioorg Med Chem Lett, 1998).
pIC50: −log10 of the molar value.

Columns and labels:
[1] = Half-life in RPMI 1640 containing 10% heat inactivated fetal calf serum culture medium at step 1; format: ADME, Bos taurus; conditions: cattle
[2] = Half-life in total CEM cell extract at Step 1; format: ADME, CCRF-CEM; conditions: human
CCRF-CEM [3] = test: Compound was tested for cytotoxicity against HIV-1 in CEM/TK- cells; format: functional; conditions: Homo sapiens
CCRF-CEM [4] = test: Compound was tested for inhibitory activity against HIV-1 replication in CEM/TK- cells; format: functional, cell-based; conditions: Homo sapiens
CEM-SS [5] = test: Compound was tested for inhibitory activity against HIV-1 replication in CEM-SS cells; format: functional, cell-based; conditions: Homo sapiens
CEM-SS [6] = test: Compound was tested for cytotoxicity against HIV-1 in CEM-SS cells; format: functional; conditions: Homo sapiens

| Structure (SMILES) | half-life [1] [h] | half-life [2] [h] | CC50 (CCRF-CEM [3]) [µM] | pIC50 (CCRF-CEM [4]) | pIC50 (CEM-SS [5]) | CC50 (CEM-SS [6]) [µM] |
| --- | --- | --- | --- | --- | --- | --- |
| Cc1cn([C@H]2C[C@H](N=[N+]=[N-])[C@@H](COP(=O)(OCCSC(=O)C(C)(C)C)Oc3ccc(CC(N)C(=O)O)cc3)O2)c(=O)[nH]c1=O.Cl (stereo partly specified) | 86.4 | 1.4 | 90 | 4.54 | 8.22 | > 90 |
| Cc1cn([C@H]2C[C@H](N=[N+]=[N-])[C@@H](COP(=O)(OCCSC(=O)C(C)(C)C)Oc3ccccc3)O2)c(=O)[nH]c1=O (stereo partly specified) | 72 | 1.2 | > 10 | 5.46 | 9.00 | > 10 |
| Cc1cn([C@H]2C[C@H](N=[N+]=[N-])[C@@H](CO)O2)c(=O)[nH]c1=O [ZIDOVUDINE] |  |  | > 100 | < 4.00 | 8.22 | > 100 |
